Measured values from PubChem BioAssay (NCI).
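These data come from cells grown in 96-well plates and exposed to compound for 48 hours at five concentrations. TGI: total growth inhibition.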

Key:
Assay in all cases: growth of human tumour cells (NCI), 48 h
COLO 205 colon = system: COLO 205 colon
UACC-257 melanoma = system: UACC-257 melanoma
HL-60(TB) leukemia = system: HL-60(TB) leukemia
HCT-15 colon = system: HCT-15 colon
SW-620 colon = system: SW-620 colon
NCI-H522 lung = system: NCI-H522 lung
NCI-H23 lung = system: NCI-H23 lung
MDA-MB-435 = system: MDA-MB-435
OVCAR-8 ovarian = system: OVCAR-8 ovarian
U251 CNS = system: U251 CNS
OVCAR-3 ovarian = system: OVCAR-3 ovarian
NCI/ADR-RES ovarian = system: NCI/ADR-RES ovarian
SNB-19 CNS = system: SNB-19 CNS
NCI-H460 lung = system: NCI-H460 lung
UACC-62 melanoma = system: UACC-62 melanoma
OVCAR-4 ovarian = system: OVCAR-4 ovarian
MCF7 breast = system: MCF7 breast
786-0 renal = system: 786-0 renal
SK-MEL-5 melanoma = system: SK-MEL-5 melanoma

Row | SMILES | TGI (COLO 205 colon) [µM] | TGI (UACC-257 melanoma) [µM] | TGI (HL-60(TB) leukemia) [µM] | TGI (HCT-15 colon) [µM] | TGI (SW-620 colon) [µM] | TGI (NCI-H522 lung) [µM] | TGI (NCI-H23 lung) [µM] | TGI (MDA-MB-435) [µM] | TGI (OVCAR-8 ovarian) [µM] | TGI (U251 CNS) [µM] | TGI (OVCAR-3 ovarian) [µM] | TGI (NCI/ADR-RES ovarian) [µM] | TGI (SNB-19 CNS) [µM] | TGI (NCI-H460 lung) [µM] | TGI (UACC-62 melanoma) [µM] | TGI (OVCAR-4 ovarian) [µM] | TGI (MCF7 breast) [µM] | TGI (786-0 renal) [µM] | TGI (SK-MEL-5 melanoma) [µM]
1 | CCOC(=O)C1(Cc2ccccc2)Cc2cc3c(cc2C1)CCC3 | 45.2 | > 100 | 76.9 | > 100 | > 100 | 96.2 | > 100 | > 100 | > 100 | > 100 | > 100 | > 100 | > 100 | > 100 | > 100 | 98.4 | 53 | > 100 | 
2 | Cc1cn(CC2=NCCN2)c(=O)[nH]c1=O | > 100 | > 100 | > 100 | > 100 | > 100 | > 100 | > 100 | > 100 | > 100 | > 100 |  | > 100 | > 100 | > 100 | > 100 | > 100 | > 100 | > 100 | > 100
3 | Cc1cc(C)c(S(=O)(=O)N[C@@H](/C=C(\Br)CO)C(C)C)c(C)c1 | 31.8 | 54.6 | 40.3 | > 100 | > 100 | 37 | > 100 | 34.1 | > 100 | > 100 | 51.8 | > 100 | > 100 | 85.4 | 28.2 |  | 59.4 | > 100 | 30.5
4 | N#C/C(=C1\N=C(c2ccccc2O)Oc2ccccc21)c1ccc([N+](=O)[O-])cc1 | > 100 | > 100 | > 100 | > 100 | > 100 |  | > 100 | > 100 | > 100 | > 100 | > 100 | > 100 | > 100 | > 100 | > 100 | > 100 | > 100 | > 100 | > 100
5 | Cc1nc(-c2ccccc2)c(C)n2c1nc1ccccc12 | > 100 | > 100 | 44.4 | 74.5 | > 100 |  | 40.9 | 59.5 | 70.1 | > 100 | 54.8 | 69.7 | > 100 | 63.3 | 41 | > 100 | 86.1 | > 100 | 
6 | Cc1ccc(/C=C2\N=C(N3CCCCC3)NC2=O)cc1 | > 100 | > 100 | > 100 | > 100 | > 100 | > 100 | > 100 | > 100 | > 100 | > 100 | > 100 | > 100 | > 100 |  | > 100 | > 100 | > 100 | > 100 | 
